From US10450347B2, “Immunomodulators” (BRISTOL-MYERS SQUIBB COMPANY, priority 2015, dated 2019)
Starred links: 1 amine or outer side, 2 acyl side, 3 side chain; linkers in the order of their positions; H or OH if unused. Positions of bridges follow the written chain, without caps; N, C: chain ends. Non-standard residues stand in square brackets, D forms with d. Residues, ends and D or L forms follow the SMILES beside them. ξ: configuration not given here. Tyrψ(CN4)Ala = C[C@@H](C(=O)[*:2])n1nnnc1[C@H](Cc1ccc(O)cc1)N[*:1]; Bta = N[C@@H](Cc1csc2ccccc12)C(=O)O; Hyp = O=C(O)[C@@H]1C[C@@H](O)CN1; NMeNle = CCCC[C@H](NC)C(=O)O; ξH = NC(Cc1c[nH]cn1)C(=O)O

Biological target: T1, PD-1-Ig/PD-L1-His (Homo sapiens, UniProt Q9NZQ7)
T1 construct: [hPD-L1(19-239)-tobacco vein mottling virus protease cleavage site (TVMV)-His]; made in house; host or cells: HEK293T cells
Test: PD-1/PD-L1 Homogenous Time-Resolved Fluorescence (HTRF) binding assay
Settings: inhibition of PD-1-Ig binding to PD-L1-TVMV-His
Text: The ability of the macrocyclic peptides of the present disclosure to bind to PD-L1 was investigated using a PD-1/PD-L1 Homogenous Time-Resolved Fluorescence (HTRF) binding assay.
Homogenous Time-Resolved Fluorescence (HTRF) Assays of Binding of Soluble PD-1 to Soluble PD-L1. Soluble PD-1 and soluble PD-L1 refers to proteins with carboxyl-end truncations that remove the transmembrane-spanning regions and are fused to heterologous sequences, specifically the Fc portion of the human immunoglobuling G sequence (Ig) or the hexahistidine epitope tag (SEQ ID NO: 3) (His). All binding studies were performed in an HTRF assay buffer consisting of dPBS supplemented with 0.1% (w/v) bovine serum albumin and 0.05% (v/v) Tween-20. For the PD-1-Ig/PD-L1-His binding assay, inhibitors were pre-incubated with PD-L1-His (10 nM final) for 15 m in 4 μl of assay buffer, followed by addition of PD-1-Ig (20 nM final) in 1 μl of assay buffer and further incubation for 15 m. PD-L1 fusion proteins from either human, cynomologous macaques, mouse, or other species were used. HTRF detection was achieved using europium crypate-labeled anti-Ig monoclonal antibody (1 nM final) and allophycocyanin (APC) labeled anti-His monoclonal antibody (20 nM final). Antibodies were diluted in HTRF detection buffer and 5 μl was dispensed on top of binding reaction. The reaction was allowed to equilibrate for 30 minutes and signal (665 nm/620 nm ratio) was obtained using an EnVision fluorometer. Additional binding assays were established between PD-1-Ig/PD-L2-His (20 and 5 nM, respectively), CD80-His/PD-L1-Ig (100 and 10 nM, respectively) and CD80-His/CTLA4-Ig (10 and 5 nM, respectively). Binding/competition studies between biotinylated Compound No. 71 and human PD-L1-His were performed as follows. Macrocyclic peptide inhibitors were pre-incubated with PD-L1-His (10 nM final) for 60 minutes in 4 μl of assay buffer followed by addition of biotinylated Compound No. 71 (0.5 nM final) in 1 μl of assay buffer. Binding was allowed to equilibrate for 30 minutes followed by addition of europium crypated labeled Streptavidin (2.5 pM final) and APC-labeled anti-His (20 nM final) in 5 μl of HTRF buffer. The reaction was allowed to equilibrate for 30 m and signal (665 nm/620 nm ratio) was obtained using an EnVision fluorometer.
Recombinant Proteins. Carboxyl-truncated human PD-1 (amino acids 25-167) with a C-terminal human Ig epitope tag [hPD-1 (25-167)-3S-IG] and human PD-L1 (amino acids 18-239) with a C-terminal His epitope tag [hPD-L1(19-239)-tobacco vein mottling virus protease cleavage site (TVMV)-His] were expressed in HEK293T cells and purified sequentially by recombinant Protein A affinity chromatography and size exclusion chromatography. Human PD-L2-His (Sino Biologicals), CD80-His (Sino Biologicals), CTLA4-Ig (RnD Systems) were all obtained through commercial sources.

T1 sequence (Q9NZQ7 with tags, fused parts or gaps): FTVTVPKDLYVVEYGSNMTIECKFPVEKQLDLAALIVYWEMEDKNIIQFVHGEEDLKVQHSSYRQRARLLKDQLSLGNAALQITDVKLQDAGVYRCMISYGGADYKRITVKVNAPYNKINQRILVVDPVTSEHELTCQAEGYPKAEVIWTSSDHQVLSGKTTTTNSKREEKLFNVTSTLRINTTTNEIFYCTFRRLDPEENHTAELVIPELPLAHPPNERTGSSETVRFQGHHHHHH

CCCC[C@@H]1C(=O)N[C@@H](CCCNC(=N)N)C(=O)N[C@H](C(=O)NCC(N)=O)CSCC(=O)N[C@@H](Cc2ccccc2)c2cnnn2[C@@H](C)C(=O)N[C@H](CC(N)=O)C(=O)N2CCC[C@H]2C(=O)N[C@@H](Cc2cnc[nH]2)C(=O)N[C@@H](CC(C)C)C(=O)N(C)CC(=O)N[C@@H](Cc2c[nH]c3ccccc23)C(=O)N[C@@H](CO)C(=O)N[C@@H](Cc2c[nH]c3ccccc23)C(=O)N(C)[C@@H](CCCC)C(=O)N1C (single isomer, unassigned) [Example 1003]
IC50 (range classes): 100 to 10000 nM

CCCC[C@H]1C(=O)N[C@@H](CN)C(=O)N[C@H](C(=O)NCC(N)=O)CSCC(=O)N[C@@H](Cc2ccc(O)cc2)C(=O)N[C@H](C)C(=O)N[C@@H](CC(=O)O)C(=O)N2CCC[C@H]2C(=O)N[C@@H](Cc2cnc[nH]2)C(=O)N[C@@H](CCC(N)=O)C(=O)N2C[C@H](O)C[C@H]2C(=O)N[C@@H](Cc2c[nH]c3ccccc23)C(=O)N[C@@H](CO)C(=O)N[C@@H](Cc2cccc3ccccc23)c2nnnn2[C@@H](CCCC)C(=O)N1C [Example 1111]
IC50 (numeric values): 2160 nM

CCCC[C@H]1C(=O)N(C)CC(=O)N[C@@H](CC(=O)O)C(=O)N[C@@H](C(C)C)C(=O)N(C)[C@@H](Cc2ccccc2)C(=O)N[C@@H](Cc2ccc(O)cc2)C(=O)N(C)CC(=O)N[C@@H](Cc2c[nH]c3ccccc23)C(=O)N[C@@H](Cc2ccc(O)cc2)C(=O)N[C@@H](CC(C)C)C(=O)N[C@H](C(=O)NCC(N)=O)CSCC(=O)NC(Cc2ccccc2)c2nnnn2[C@@H](Cc2ccccc2)C(=O)N1C (single isomer, unassigned) [Example 3002]
IC50 (range classes): 100 to 10000 nM

CCCC[C@H]1C(=O)N[C@@H](C)C(=O)N[C@H](C(=O)NCC(N)=O)CSCC(=O)N[C@@H](Cc2ccc(O)cc2)C(=O)N[C@H](C)C(=O)N[C@@H](CC(=O)O)C(=O)N2CCC[C@H]2C(=O)N[C@@H](Cc2cnc[nH]2)C(=O)N[C@@H](CCC(N)=O)C(=O)N2C[C@H](O)C[C@H]2C(=O)N[C@@H](Cc2c[nH]c3ccccc23)C(=O)N[C@@H](CO)C(=O)N[C@@H](Cc2cccc3ccccc23)c2nnnn2[C@@H](CCCC)C(=O)N1C [Example 1113]
IC50 (range classes): 100 to 10000 nM

CCCC[C@H]1C(=O)N(C)[C@@H](CCCC)C(=O)N[C@@H](CC(C)C)C(=O)N[C@H](C(=O)NCC(=O)O)CSCC(=O)N[C@@H](Cc2ccc(O)cc2)c2nnnn2[C@@H](C)C(=O)N[C@@H](CC(N)=O)C(=O)N2CCC[C@H]2C(=O)NC(Cc2c[nH]cn2)C(=O)N[C@@H](CCC(N)=O)C(=O)N2C[C@H](O)C[C@H]2C(=O)N[C@@H](Cc2c[nH]c3ccccc23)C(=O)N[C@@H](CO)C(=O)N[C@@H](Cc2csc3ccccc23)C(=O)N1C (stereo partly shown) [Example 1061] ({CH2CO}-[Tyrψ(CN4)Ala]NP[ξH]Q[Hyp]WS[Bta][NMeNle][NMeNle]LCG-OH; thioether N-13)
IC50 (range classes): 100 to 10000 nM

CCCC[C@H]1C(=O)N[C@@H](CCCNC(=N)N)C(=O)N[C@H](C(=O)NCC(N)=O)CSCC(=O)N[C@@H](Cc2ccc(O)cc2)C(=O)N(C)[C@@H](C)C(=O)N[C@@H](CC(N)=O)C(=O)N2CCC[C@H]2C(=O)N[C@@H](Cc2cnc[nH]2)C(=O)N[C@@H](CC(C)C)C(=O)N2C[C@H](O)C[C@H]2C(=O)N[C@@H](Cc2c[nH]c3ccccc23)C(=O)N[C@@H](CO)C(=O)N[C@@H](Cc2cccc3ccccc23)c2nnnn2[C@@H](CCCC)C(=O)N1C [Example 1052]
IC50 (range classes): 10 to 99 nM

CCCC[C@H]1C(=O)N[C@@H](CN)C(=O)N[C@H](C(=O)NCC(N)=O)CSCC(=O)N[C@@H](Cc2ccc(O)cc2)C(=O)N2CCCC[C@H]2C(=O)N[C@@H](CC(N)=O)C(=O)N2CCC[C@H]2C(=O)N[C@@H](CN)C(=O)N[C@@H](CCC(=O)O)C(=O)N2C[C@H](O)C[C@H]2C(=O)N[C@@H](Cc2c[nH]c3ccccc23)C(=O)N[C@@H](CCN)C(=O)N[C@@H](Cc2cccc3ccccc23)c2nnnn2[C@@H](CCCC)C(=O)N1C [Example 1059]
IC50 (range classes): 10 to 99 nM
